In the NIST ThermoML archive (doi:10.1021/je034253u):

Assay: excess molar enthalpy (molar enthalpy of mixing); xn = mol fraction of the nth substance listed
Conditions: Liquid, Flow calorimetry

CC1CO1 (stereo not drawn) [methyloxirane] + CCCC(C)C
323.15 K, 1140 kPa
Conditions	excess molar enthalpy [kcal/mol]
x1 = 0.0895	0.0966
x1 = 0.1719	0.1678
x1 = 0.2479	0.2199
x1 = 0.3184	0.2548
x1 = 0.3838	0.2782
x1 = 0.4447	0.2909
x1 = 0.5015	0.2964
x1 = 0.5547	0.2945
x1 = 0.6045	0.2873
x1 = 0.6514	0.2763
x1 = 0.6954	0.2591
x1 = 0.737	0.2397
x1 = 0.7763	0.2177
x1 = 0.8134	0.1924
x1 = 0.8486	0.165
x1 = 0.882	0.135
x1 = 0.9137	0.103
x1 = 0.9439	0.0691
x1 = 0.9726	0.0332

FC(F)C(F)(F)F [pentafluoroethane] + FCF
308.15 K, 5130 kPa
Conditions	excess molar enthalpy [kcal/mol]
x2 = 0.088	0.00598
x2 = 0.1692	0.012
x2 = 0.2444	0.0174
x2 = 0.3142	0.0227
x2 = 0.3792	0.0272
x2 = 0.4399	0.0308
x2 = 0.4967	0.0337
x2 = 0.5499	0.0359
x2 = 0.5999	0.037
x2 = 0.647	0.0375
x2 = 0.6913	0.037
x2 = 0.7332	0.0359
x2 = 0.7729	0.0339
x2 = 0.8105	0.0311
x2 = 0.8461	0.0275
x2 = 0.88	0.0232
x2 = 0.9122	0.0182
x2 = 0.9428	0.0124
x2 = 0.9721	0.00621
